# Test results taken from US10456374B2, “Pyrrolidone carboxylic acid (PCA) for ophthalmic use” (Laboratori Baldacci S.p.A., priority 2015, dated 2019).
# How the values were obtained:
# [1] = Ex vivo transcorneal permeation through isolated rabbit cornea; format: in vitro ADME; conditions: donor RBB pH 7.6 with 0.02% w/w PCA and 0.04% w/w hyaluronic acid, 32° C.
# Text: Evaluation of PCA Ex Vivo Transcorneal Permeation of a Composition According to Example 2 Through Isolated Rabbit Cornea.
# For the determination of ex vivo corneal permeability, rabbit corneas obtained after proptosis of the eye, performed immediately after the animal euthanization, were used. The rabbits were New Zealand albino rabbits (n=3) and were euthanized by intravenous injection of Pentothal sodium (Farmaceutici Gellini, Aprilia, Italy). After the eyes were proptosed, the cornea, with 2 mm of sclera, was immediately excised and mounted in a perfusion apparatus. During the preparation, particular attention was paid to prevent the exfoliation of the corneal epithelium and its contact with any solid surfaces. […]
# After the permeation experiment start, at appropriate intervals of time (15, 30, 60, 90, 120, 180 and 240 minutes), 0.50 mL of solution were withdrawn from the receiving compartment (endothelial side) and replaced with fresh RBB. At the end of the experiment, the entire donor phase was collected and submitted to quantitative determination of the active ingredient in a similar manner as provided for the samples of the receiving phase.
# Quantitative analysis of PCA was performed by HPLC using a C18 reverse phase column C18 (Bondclone 10 μm 300×3.9 mm), and the eluent was a 98:2 mixture buffer solution to acetonitrile. […]
# [2] = Residence in the ocular tissue; conditions: stated in the description, no test described
# [3] = Pescina et al, 2015; cited from earlier work
SMILES,"Papp at 240 min, 0.02 % w/w ([1]; New Zealand albino, isolated rabbit cornea, read-out: PCA corneal permeability)","PCA found in the receiving compartment, of the amount present in the donor compartment ([1]; end of the experiment (240 minutes))",Period of time PCA remains in the ocular tissue [2],permeability through porcine cornea [3]
"O=C1CCC(C(=O)O)N1 (stereo not shown) [PCA, Pyrrolidone carboxylic acid]",3.95 ×10⁻⁶ cm/s,0.051 % w/w,greater than 3 hours,–
O=C1OC2(c3ccc(O)cc3Oc3cc(O)ccc32)c2ccccc21 [sodium fluorescein],–,–,–,0.05 10^−5 cm/s
